# Test results: patent US9957298B2, “Peptides as oxytocin agonists” (Hoffmann-La Roche Inc., priority 2014, dated 2018)
# Starred links: 1 amine or outer side, 2 acyl side, 3 side chain; linkers in the order of their positions; H or OH if unused. Positions of bridges follow the written chain, without caps; N, C: chain ends. Non-standard residues stand in square brackets, D forms with d. Residues, ends and D or L forms follow the SMILES beside them. X1 = N[C@H](CC(=O)[*:1])C(=O)[*:2]; d(αMeL) = CC(C)C[C@@](C)(N)C(=O)O; 2Thi = N[C@@H](Cc1cccs1)C(=O)O; Chg = N[C@H](C(=O)O)C1CCCCC1; Phg = N[C@H](C(=O)O)c1ccccc1; Suc = O=C(CCC(=O)[*:2])[*:1]; hLeu = CC(C)CC[C@H](N)C(=O)O; NcPrGly = O=C(O)CNC1CC1; Nva = CCC[C@H](N)C(=O)O; Dap = NC[C@H](N)C(=O)O; Sar = CNCC(=O)O
# Key:
# Assay type in all cases: cell-based
# [1] = molecular target: T1, human Oxytocin (OTR) receptor (Homo sapiens, UniProt P30559); test: Calcium flux assay (FLIPR), agonist mode, CHO cells expressing human oxytocin receptor; details: for EC50: CHO cells, human OTR, calcium flux FLIPR, read-out: hOT EC50; for Emax: CHO, read-out: hOT efficacy (%); for Emax / hOT efficacy (%): maximum response normalized to endogenous full agonist = 100%
# T1 construct: expressed in transfected cells
# T1 sequence (P30559 1-389): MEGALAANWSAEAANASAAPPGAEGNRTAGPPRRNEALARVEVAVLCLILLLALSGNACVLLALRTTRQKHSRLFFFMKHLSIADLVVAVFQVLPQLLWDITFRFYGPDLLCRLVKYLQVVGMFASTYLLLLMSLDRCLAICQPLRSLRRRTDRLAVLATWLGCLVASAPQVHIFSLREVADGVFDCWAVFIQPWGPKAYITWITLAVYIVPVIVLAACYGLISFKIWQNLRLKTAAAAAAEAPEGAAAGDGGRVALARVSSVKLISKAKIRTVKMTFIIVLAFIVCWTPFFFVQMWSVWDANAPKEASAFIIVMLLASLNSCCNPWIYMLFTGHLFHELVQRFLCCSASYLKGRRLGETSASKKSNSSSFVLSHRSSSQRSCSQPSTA
# Description: (§1) Chines Hamster Ovary (CHO) cells were transfected with expression plasmids encoding either the human V1a, the human Oxytocin (OTR) or the human V2 receptor, the later in combination with the chimeric Gqs5 G protein to redirect the signal to Calcium flux. Stable cells were cloned by limiting dilution to yield monoclonal cell lines expressing either human V1a, human V2+Gqs5 or human OTR receptors and selected based on functional responses detected on a fluorometric imaging plate reader (FLIPR) detecting Calcium flux in the cell after receptor activation. The stable cell lines were grown in F-12 K Nutrient Mixture (Kaighns Modification), containing 10% foetal bovine serum (FBS), 1% penicillin-streptomycin, 1% L-[…], 200 ug/ml Geneticin at 37° C. in a 10% CO2 incubator at 95% humidity.
# (§2) On the afternoon before the assay, cells were plated at a density of 50,000 cells/well into black 96 well plates with clear bottoms to allow cell inspection and fluorescence measurements from the bottom of each well. The density of cells was sufficient to yield a confluent monolayer the next day. Hanks balanced salt solution, without phenol red, containing 20 mM HEPES (pH 7.3) and 2.5 mM probenecid (assay buffer) was prepared fresh for each experiment. Compound dilutions were made using a Beckman Biomek 2000 laboratory automation workstation, in assay buffer containing 1% DMSO. The dye-loading buffer consisted of a final concentration of 2 μM Fluo-4-AM (dissolved in DMSO and pluronic acid) in assay buffer. The existing culture media was removed from the wells and 100 μl of the dye-loading buffer was added to each well and incubated for approximately 60 min at 37° C. in a 5% CO2 incubator at 95% humidity. Once dye-loaded, the cells were washed thoroughly on an Embla cell washer with the assay buffer to remove any unincorporated dye. Exactly 100 μl assay buffer was left in each well.
# (§3) Each 96 well plate containing dye-loaded cells was placed into the FLIPR machine and the laser intensity set to a suitable level to detect low basal fluorescence. To test compounds as agonists, 25 μl diluted compound was added to the plate 10 seconds into the fluorescent measurements and fluorescent response was recorded for 5 minutes. The fluorescence data was normalized to the endogenous full agonist dose-response set at 100% for the maximum response and 0% for the minimum. Each agonist concentration-response curve was constructed using a four parameter logistic equation with Microsoft Excel XLFit as follows: Y=Minimum+((Maximum−Minimum)/(1+10^(LogEC50-X)nH)), where y is the % normalized fluorescence, minimum is the minimum y, maximum is the maximum y, logEC50 is the log10 concentration which produces 50% of the maximum induced fluorescence, x is the log10 of the concentration of the agonist compound and H is the slope of the curve (the Hill Coefficient). The maximum value gives the efficacy of the agonist test compound in percentage. The concentration of agonist that produced a half-maximal response is represented by the EC50 value, the logarithm of which yielded the pEC50 value.
# human V1a receptor = molecular target: T2, human V1a receptor (Homo sapiens, UniProt P37288); test: Calcium flux assay (FLIPR), agonist mode, CHO cells expressing human V1a receptor; details: read-out: hV1a EC50
# T2 construct: expressed in transfected cells
# T2 sequence (P37288 whole entry): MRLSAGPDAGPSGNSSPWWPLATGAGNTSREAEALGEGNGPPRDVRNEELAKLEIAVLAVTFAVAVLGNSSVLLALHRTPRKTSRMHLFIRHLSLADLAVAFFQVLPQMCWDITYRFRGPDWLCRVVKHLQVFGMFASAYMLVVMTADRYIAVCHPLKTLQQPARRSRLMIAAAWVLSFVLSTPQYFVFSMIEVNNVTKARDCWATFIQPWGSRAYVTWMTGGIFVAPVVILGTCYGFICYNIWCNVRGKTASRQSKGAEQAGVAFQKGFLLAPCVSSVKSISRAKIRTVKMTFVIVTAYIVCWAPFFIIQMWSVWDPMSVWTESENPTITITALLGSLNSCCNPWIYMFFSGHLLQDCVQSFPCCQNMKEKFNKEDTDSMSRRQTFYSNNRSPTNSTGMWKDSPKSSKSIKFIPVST
# Description: as §1, §2, §3
# human V2 receptor = molecular target: T3, human V2 receptor (Homo sapiens, UniProt P30518); test: Calcium flux assay (FLIPR), agonist mode, CHO cells expressing human V2 receptor + Gqs5; details: for EC50: CHO cells, human V2 + chimeric Gqs5, calcium flux FLIPR, read-out: hV2 EC50; for hV2 efficacy (%): maximum response normalized to endogenous full agonist = 100%
# T3 construct: expressed in transfected cells
# T3 sequence (P30518 whole entry): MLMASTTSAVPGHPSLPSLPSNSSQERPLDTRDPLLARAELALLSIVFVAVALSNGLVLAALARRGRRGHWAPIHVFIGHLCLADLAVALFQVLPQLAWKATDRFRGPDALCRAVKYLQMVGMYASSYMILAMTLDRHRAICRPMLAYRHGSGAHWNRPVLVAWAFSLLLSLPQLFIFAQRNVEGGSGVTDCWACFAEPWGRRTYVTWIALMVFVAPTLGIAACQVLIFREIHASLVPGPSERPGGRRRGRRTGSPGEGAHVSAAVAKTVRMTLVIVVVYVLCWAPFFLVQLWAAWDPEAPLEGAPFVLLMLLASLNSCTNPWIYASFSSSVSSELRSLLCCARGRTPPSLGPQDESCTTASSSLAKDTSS
# Description: as §1, §2, §3
SMILES,EC50 [1] [nM],Emax [1] [%],EC50 (human V1a receptor) [nM],EC50 (human V2 receptor) [nM],hV2 efficacy (%) (human V2 receptor),hOT efficacy (%) [1] [%]
CC[C@H](C)[C@@H]1NC(=O)[C@H](Cc2ccc(O)cc2)NC(=O)CCC(=O)NC[C@@H](C(=O)N(C)CC(=O)N[C@H](C(=O)NCC(N)=O)c2ccccc2)NC(=O)[C@H](CC(N)=O)NC(=O)[C@H](CCC(N)=O)NC1=O [Example 37] (YIQN[Dap][Sar][Phg]G-NH2; linker N-5 via Suc),0.2,112,> 27000,53,121%,
CC[C@H](C)[C@@H]1NC(=O)[C@H](Cc2ccc(O)cc2)NC(=O)CCC(=O)NC[C@@H](C(=O)N(C)CC(=O)N[C@@H](CCC(C)C)C(=O)NCC(N)=O)NC(=O)[C@H](CC(N)=O)NC(=O)[C@H](CCC(N)=O)NC1=O [Example 25] (YIQN[Dap][Sar][hLeu]G-NH2; linker N-5 via Suc),0.8,103,> 27000,213,118%,
CCC[C@H](NC(=O)[C@@H]1CCCN1C(=O)[C@@H]1CNC(=O)CCC(=O)N[C@@H](Cc2ccc(O)cc2)C(=O)N[C@@H]([C@@H](C)CC)C(=O)N[C@@H](CCC(N)=O)C(=O)N[C@@H](CC(N)=O)C(=O)N1)C(=O)NCC(N)=O [Example 17] (YIQN[Dap]P[Nva]G-NH2; linker N-5 via Suc),0.6,114,351,116,116/116%,
CC[C@H](C)[C@@H]1NC(=O)[C@H](Cc2ccc(O)cc2)NC(=O)CCC(=O)NC[C@@H](C(=O)N(C)CC(=O)N[C@@H](CCSC)C(=O)NCC(N)=O)NC(=O)[C@H](CC(N)=O)NC(=O)[C@H](CCC(N)=O)NC1=O [Example 26] (YIQN[Dap][Sar]MG-NH2; linker N-5 via Suc),0.5,107,> 27000,281,119%,
CC[C@H](C)[C@@H]1NC(=O)[C@H](Cc2ccc(O)cc2)NC(=O)CCC(=O)NC[C@@H](C(=O)N2CCC[C@H]2C(=O)N[C@H](C(=O)NCC(N)=O)c2ccccc2)NC(=O)[C@H](CC(N)=O)NC(=O)[C@H](CCC(N)=O)NC1=O [Example 19] (YIQN[Dap]P[Phg]G-NH2; linker N-5 via Suc),0.4,114,470,59,114%,
CC[C@H](C)[C@@H]1NC(=O)[C@H](Cc2ccc(O)cc2)NC(=O)CCC(=O)NC[C@@H](C(=O)N2CCC[C@H]2C(=O)N[C@@H](CCC(N)=O)C(=O)NCC(N)=O)NC(=O)[C@H](CC(N)=O)NC(=O)[C@H](CCC(N)=O)NC1=O [Example 13] (YIQN[Dap]PQG-NH2; linker N-5 via Suc),8,,,,,128
CC[C@H](C)[C@@H]1NC(=O)[C@H](Cc2ccc(O)cc2)NC(=O)CCC(=O)NC[C@@H](C(=O)N(C)CC(=O)N[C@@H](Cc2cccs2)C(=O)NCC(N)=O)NC(=O)[C@H](CC(N)=O)NC(=O)[C@H](CCC(N)=O)NC1=O [Example 34] (YIQN[Dap][Sar][2Thi]G-NH2; linker N-5 via Suc),3,,,,,106
CC[C@H](C)[C@@H]1NC(=O)[C@H](Cc2ccc(O)cc2)NC(=O)CCC(=O)NC[C@@H](C(=O)N(CC(=O)N[C@H](C(=O)NCC(N)=O)C2CCCCC2)C2CC2)NC(=O)[C@H](CC(N)=O)NC(=O)[C@H](CCC(N)=O)NC1=O [Example 43] (YIQN[Dap][NcPrGly][Chg]G-NH2; linker N-5 via Suc),0.26,110,,,,
CC[C@H](C)[C@@H]1NC(=O)[C@H](Cc2ccc(O)cc2)NC(=O)CCC(=O)NC[C@@H](C(=O)N(C)CC(=O)N[C@@H](CCC(N)=O)C(=O)NCC(N)=O)NC(=O)[C@H](CC(N)=O)NC(=O)[C@H](CCC(N)=O)NC1=O [Example 32] (YIQN[Dap][Sar]QG-NH2; linker N-5 via Suc),5,,,,,112
CC[C@H](C)[C@@H]1NC(=O)[C@H](Cc2ccc(O)cc2)NC(=O)CCC(=O)NC[C@@H](C(=O)N2CCC[C@H]2C(=O)N[C@@H](Cc2cnc[nH]2)C(=O)NCC(N)=O)NC(=O)[C@H](CC(N)=O)NC(=O)[C@H](CCC(N)=O)NC1=O [Example 15] (YIQN[Dap]PHG-NH2; linker N-5 via Suc),8,,,,,123

# More lines, in order of falling EC50 [1], values ahead:
EC50 [1] [nM],Emax [1] [%],EC50 (human V1a receptor) [nM],EC50 (human V2 receptor) [nM],hV2 efficacy (%) (human V2 receptor),hOT efficacy (%) [1] [%],SMILES
5,,,,,126,CC[C@H](C)[C@@H]1NC(=O)[C@H](Cc2ccc(O)cc2)NC(=O)C[C@@H](N)C(=O)NC[C@@H](C(=O)N(C)CC(=O)N[C@@H](CC(C)C)C(=O)NCC(N)=O)NC(=O)[C@H](CC(N)=O)NC(=O)[C@H](CCC(N)=O)NC1=O [Example 4] (YIQN[Dap][Sar]LG-NH2; linker N-5 via X1)
4,,> 27000,,,144,CC[C@H](C)[C@@H]1NC(=O)[C@H](Cc2ccc(O)cc2)NC(=O)[C@@H](N)CC(=O)NC[C@@H](C(=O)N(C)CC(=O)N[C@@H](CC(C)C)C(=O)NCC(N)=O)NC(=O)[C@H](CC(N)=O)NC(=O)[C@H](CCC(N)=O)NC1=O [Example 2] (H-DYIQN[Dap][Sar]LG-NH2; lactam 1-6)
3,,,,,101,CC[C@H](C)[C@@H]1NC(=O)[C@H](Cc2ccc(O)cc2)NC(=O)CCC(=O)NC[C@@H](C(=O)N2CCC[C@H]2C(=O)N[C@](C)(CC(C)C)C(=O)NCC(N)=O)NC(=O)[C@H](CC(N)=O)NC(=O)[C@H](CCC(N)=O)NC1=O [Example 7] (YIQN[Dap]P[d(αMeL)]G-NH2; linker N-5 via Suc)
0.9,117,562,174,112%,,CC[C@H](C)[C@@H]1NC(=O)[C@H](Cc2ccc(O)cc2)NC(=O)CCC(=O)NC[C@@H](C(=O)N2CCC[C@H]2C(=O)N[C@H](C(=O)NCC(N)=O)C2CCCCC2)NC(=O)[C@H](CC(N)=O)NC(=O)[C@H](CCC(N)=O)NC1=O [Example 20] (YIQN[Dap]P[Chg]G-NH2; linker N-5 via Suc)
0.8,107,> 27000,282,114%,,CCC[C@H](NC(=O)CN(C)C(=O)[C@@H]1CNC(=O)CCC(=O)N[C@@H](Cc2ccc(O)cc2)C(=O)N[C@@H]([C@@H](C)CC)C(=O)N[C@@H](CCC(N)=O)C(=O)N[C@@H](CC(N)=O)C(=O)N1)C(=O)NCC(N)=O [Example 27] (YIQN[Dap][Sar][Nva]G-NH2; linker N-5 via Suc)
0.37,115,,,,,CC[C@@H](C)[C@@H](NC(=O)CN(C(=O)[C@@H]1CNC(=O)CCC(=O)N[C@@H](Cc2ccc(O)cc2)C(=O)N[C@@H]([C@@H](C)CC)C(=O)N[C@@H](CCC(N)=O)C(=O)N[C@@H](CC(N)=O)C(=O)N1)C1CC1)C(=O)NCC(N)=O [Example 42] (YIQN[Dap][NcPrGly][dI]G-NH2; linker N-5 via Suc)
